According to publication PMC8362065, “Easily Available, Amphiphilic Diiron Cyclopentadienyl Complexes Exhibit in Vitro Anticancer Activity in 2D and 3D Human Cancer Cells through Redox Modulation Triggered by CO Release” (Chemistry (Weinheim an Der Bergstrasse, Germany), 2021):

Columns and labels:
[1] = tested on: Embryonic kidney HEK293 cells; test: MTT assay, noncancerous cell line; format: cell-based, human; conditions: 72 h; for IC50: HEK293 noncancerous cells, MTT; for SI (selectivity index): IC50 in noncancerous HEK293 cells / average IC50 in cancer cells
Procedure: As one of the main drawbacks of chemotherapeutics is the toxic effect toward noncancerous cells, we measured the cytotoxicity of tested complexes against a noncancerous cell line (HEK293) and calculated the selectivity index (SI, defined as the ratio between the IC50 value in noncancerous cells and the corresponding average IC50 value related to cancer cells; Table 5).
(§1) Compounds [2B]BF4, [2C]CF3SO3, [2D]CF3SO3 and [3F]CF3SO3 were dissolved in water while the other compounds were dissolved in the minimum DMSO amount prior to cell culture testing. A calculated amount of the stock drug DMSO solution was added to the cell culture media to reach a final maximum DMSO concentration of 0.5 %, which had no effects on cell viability.
(§2) Cell cultures. Human colon (HCT‐15), pancreatic (PSN‐1) and breast (MCF‐7) carcinoma cell lines along with human melanoma cells (A375) were obtained from American Type Culture Collection (ATCC, Rockville, MD). Embryonic kidney HEK293 cells were obtained from the European Collection of Cell Cultures (ECACC, Salisbury, UK). Human ovarian 2008 cancer cells were kindly provided by Prof. G. Marverti (Dept. of Biomedical Science of Modena University, Italy). MCF‐7 ADR cells were kindly provided by Prof. N. Colabufo (Dept. Pharmacy, University of Bari, Italy). Cell lines were maintained in the logarithmic phase at 37 °C in a 5 % CO2 atmosphere using the following culture media containing 10 % fetal calf serum (Euroclone, Milan, Italy), antibiotics (50 units/mL penicillin and 50 μg/mL streptomycin) and 2 mM L‐glutamine: i) RPMI‐1640 medium (Euroclone, Milan, Italy) for PSN‐1, 2008, HCT‐15, MCF‐7 and MCF‐7 ADR cells; ii) DMEM for A375 and HEK293 cells.
(§3) MTT assay. The growth inhibitory effect towards tumour cells was evaluated by means of MTT assay as previously described.[57] Briefly, 3–8×10^3 cells/well, dependent upon the growth characteristics of the cell line, were seeded in 96‐well microplates in growth medium (100 μL). After 24 h, the medium was removed and replaced with a fresh one containing the compound to be studied at the appropriate concentration. Triplicate cultures were established for each treatment. After 24 or 72 h, each well was treated with 10 μL of a 5 mg/mL MTT saline solution, and following 5 h of incubation, 100 μL of a sodium dodecyl sulfate (SDS) solution in HCl 0.01 M were added. After an overnight incubation, cell growth inhibition was detected by measuring the absorbance of each well at 570 nm using a Bio‐Rad 680 microplate reader. Mean absorbance for each drug dose was expressed as a percentage of the control untreated well absorbance and plotted against drug concentration. IC50 values, the drug concentrations that reduce the mean absorbance at 570 nm to 50 % of those in the untreated control wells, were calculated by the four‐parameter logistic (4‐PL) model. Evaluation was based on means from at least four independent experiments.

[2] = tested on: MCF‐7 ADR cells; test: MTT assay, multidrug-resistant cancer cell model overexpressing P-gp; format: cell-based, human; conditions: for IC50: MCF‐7 ADR cells, 72 h, MTT; for RF=IC50 (resistant cells)/IC50 (wild‐type cells): MCF‐7 ADR vs MCF‐7, 72 h
Procedure: The antiproliferative activity was also investigated in a multidrug‐resistant cancer cell model overexpressing P‐gp (MCF‐7 ADR cells).
as §1, §2, §3

[3] = Stability in cell culture medium (DMEM) at 37 °C by 1H NMR; format: physicochemical; conditions: DMEM-d (6.6 % CD3OD)
Procedure: Next, the stability of the diiron compounds in a cell culture medium (DMEM) solution at 37 °C, over a shorter time range (24 h), was assessed by ^1H NMR.
Stability in water (D2O) and cell culture medium. The procedures are described in the Supporting Information, and data are collected in Table S3.
Table S3. Stability of diiron complexes in D2O, D2O/CD3OD, DMSO-d6/D2O and cell culture medium (DMEM-
d/CD3OD) solution at 37 °C calculated by 1H NMR (Me2SO2 internal standard).
% starting material (72 h) % starting material
Compound D O D O/CD OD DMSO-d /D O DMEM-d
[a] X = I for the stability in D 2O, X = CF3SO3 for the stability in cell culture medium. [b] Stability in D 2O and […]

[4] = tested on: 3D cell spheroids of human pancreatic (PSN‐1) cancer cells; test: Acid phosphatase (APH) assay, 3D spheroid culture; format: cell-based; conditions: PSN‐1 spheroids, 72 h, APH test
From the text: (§4) The remarkable cell‐killing effect observed in 2D cultured cells prompted us to evaluate the in vitro antitumor activity of the complexes on 3D cell cultures. Differently from 2D monolayer culture, 3D spheroid cell culture systems comprise cancer cells in various cell growth stages. Consequently, the multicellular cancer spheroid model is recognized to better reflect the tumour mass in vivo regarding drug permeation, cell interactions, gene expression, hypoxia and nutrient gradients with respect to monolayer cell cultures, making 3D models more predictive than conventional 2D monolayer cultures in screening antitumor drugs.[38] Table 6 summarizes the IC50 values obtained after treatment of 3D cell spheroids of human ovarian (2008) and pancreatic (PSN‐1) cancer cells with the diiron complexes and cisplatin.
(§5) Spheroid cultures. Spheroid cultures were obtained by seeding 2.5×10^3 cells/well in round bottom non‐tissue culture treated 96 well‐plate (Greiner Bio‐one, Kremsmünster, Austria) in phenol red free RPMI‐1640 medium (Sigma Chemical Co.), containing 10 % FCS and supplemented with 20 % methyl cellulose stock solution.
(§6) Acid phosphatase (APH) assay. An APH modified assay was used for determining cell viability in 3D spheroids, as previously described.[58] IC50 values were calculated with a four‐parameter logistic (4‐PL) model. All the values are the means ± SD of not less than four independent experiments.

[5] = tested on: 3D cell spheroids of human ovarian (2008) cancer cells; test: Acid phosphatase (APH) assay, 3D spheroid culture; format: cell-based; conditions: 2008 spheroids, 72 h, APH test
From the text: as §4, §5, §6

[6] = Solubility pattern of the isolated compound (qualitative); format: physicochemical; conditions: isolated solid

| Substance | IC50 [1] | SI (selectivity index) [1] | IC50 [2] | RF=IC50 (resistant cells)/IC50 (wild‐type cells) [2] | % starting material (24 h) [3] | IC50 [4] | IC50 [5] | Solubility in water (qualitative) [6] | IC50±SD (μM) [4] | IC50±SD (μM) [5] |
| --- | --- | --- | --- | --- | --- | --- | --- | --- | --- | --- |
| [Fe2Cp2(CO)2(μ‐CO){μ‐CNBn2}]X [[5H]CF3SO3] | 98.3 ± 4.2 µM | 2.8 | 44.7 ± 6.1 µM | 1.2 | 75% | 86.2 ± 6.4 µM | 73.2 ± 6.2 µM | poorly soluble |  |  |
| [Fe2Cp2(CO)2(μ‐CO){μ‐CNEt(2‐naphthyl)}]BF4 [[4G]BF4] | 89.5 ± 4.5 µM | 3.3 | 26.9 ± 5.1 µM | 1.3 | 85% | 77.4 ± 8.4 µM | 58.9 ± 4.8 µM | insoluble |  |  |
| [Fe2Cp2(CO)2(μ‐CO){μ‐CNMe(1H‐indol‐6‐yl)}]CF3SO3 [[2A]CF3SO3] | 136 ± 6.4 µM | 2.3 | 84.5 ± 8.5 µM | 1.3 | 86% | > 100 µM | > 100 µM | insoluble |  |  |
| [Fe2Cp2(CO)2(μ‐CO){μ‐CNMe(4‐C6H4OMe)}]CF3SO3 [[2D]CF3SO3] | 94.3 ± 6.1 µM | 5.6 | 22.6 ± 4.2 µM | 1.6 | 77% | 53.7 ± 6.1 µM | 42.8 ± 4.2 µM | soluble |  |  |
| [Fe2Cp2(CO)2(μ‐CO){μ‐CNMe(C6H11)}]X [[2C]CF3SO3] | 62.5 ± 4.9 µM | 3.6 | 23.3 ± 4.1 µM | 1.3 | 85% | 78.2 ± 9.1 µM | 66.4 ± 8.6 µM | less soluble |  |  |
| [Fe2Cp2(CO)2(μ‐CO){μ‐CNMe(CH2CHCH2)}]X [[3F]CF3SO3] | > 100 µM |  | > 100 µM |  |  | > 100 µM | > 100 µM | soluble | ineffective | ineffective |
| [Fe2Cp2(CO)2(μ‐CO){μ‐CNMe(CH2PO3Et2)}]X [[2B]BF4] | > 100 µM |  | > 100 µM |  | 88% | > 100 µM | > 100 µM | soluble |  |  |
